This is an account of results in article PMC4821601, “The Interactions of P-Glycoprotein with Antimalarial Drugs, Including Substrate Affinity, Inhibition and Regulation” (PLoS ONE, 2016).

A word on the efflux ratio: it is the permeability from basolateral to apical divided by that in the opposite direction, in the common usage.

Series [1] in a line: Bidirectional transport (Papp, efflux ratio) of antimalarials through Caco-2 cell monolayers. The series is classed as in vitro ADME, human. The conditions noted are these: human; for Papp at 120 min: Caco-2, Caco-2 monolayers. The procedure:
(§1) The initial experiments were conducted in mid-40s passage cells and repeated in early 80s passage Caco-2 cells. […] In order to maintain equivalent transport medium (HBSS/HBSS with inhibitor) level both outside and inside the chambers, 300 μL was used as medium in the apical chambers and 600 μL in the basolateral chambers. […] Drugs were co-incubated with MRCP, BCRP and ATP hydrolysis blockers to determine the involvement of other efflux mechanisms. Prior to the experiment, the transport medium, HBSS or HBSS with P-gp inhibitors were pre-incubated with the cells for 30 minutes. Following incubation, inserts were placed in new well plates and donor chamber is replaced with drug or drug with inhibitor and the receiver chamber with blank HBSS or HBSS with inhibitor. Transport medium was collected from the receiver chamber after stirring at time intervals of 30, 60, 90 and 120 minutes and was replaced with the same volume of fresh HBSS, or HBSS with inhibitor, when P-gp inhibitors were used in the study. At the end of the experiment 100 μL of medium was removed from the donor chamber in addition to medium collected from the receiver chamber during the study. The cells were then washed thoroughly in cold (4°C) PBS and cell membranes attached to the inserts were sonicated for 10 minutes in a sonicating water bath and centrifuged at 10,000 g for 10 minutes. Supernatant was frozen at -80°C until assayed. […] CL.vol=[…].vol = clearance volume (mL), n = time (min), Aa = amount in acceptor compartment at time n (pmols), Cd0 = concentration in donor compartment at time zero (nM), Vd = volume of the donor compartment (mL), Ca = concentration in acceptor compartment at the previous time point (nM), Vs = sample volume of previous time point (mL), Ac = amount of compound associated with the cells (pmol), Nfin = final time point (min). […] The cleared volume was plotted against time and the slope of the regression line was divided by the surface area to obtain the Papp values. […] The method from Davis and colleagues was adopted with slight modifications. Separations were performed using an Apollo C18 (5 μm, 4.6x150mm) column attached to a matched guard column (5 μm, 4.6x5.5 mm). […] The injection volume was 40 μL and column oven was maintained at 35°C. The analytes were detected at 222 nm and the retention time was 5.6 minutes. Assay developed by Pussard and co-workers were used and slight modifications were done to adjust laboratory conditions. Separation was done using a Prevail C18 (3 μm, 4.6x150mm) column attached to a Direct-connect^TM universal column prefilter. The mobile phase consisted of 20 mM (w/v) KH2PO4 in deionized water at pH 3.0 and acetonitrile (82:18) v/v. […] The injection volume was 40 μL and column oven was maintained at 30°C. The analytes were detected at 343 nm with a retention time of 2.4 minutes. […] Separations were performed using an Apollo C18 (5 μm, 4.6x150mm) column attached to matched guard column (5 μm, 4.6x5.5mm). […] The injection volume was 40 μL and column oven was maintained at 30°C. The analytes were detected at 660 nm with a retention time of 3.8 minutes. A 40 μL sample was spiked with 5 μL 0.5 mM artemisinin internal standard. […] The pipettor was adjusted to the maximum volume (100 μL). […] Pre-treated samples were loaded into the tips by gently aspirating and discarding into the same vial. The process was repeated 10 times in order to increase binding efficiency of drugs to the OMIX 96 C4 matrix. […] The LC-MS method described by […] and co-workers were modified to suit the LC-MS-MS conditions. […] Wexford, Ireland) at 40°C. […] Quantitation was performed in multiple reactions monitoring, MRM mode, using DUIS (ESI^+ and APCI^+) ion sources. […] The optimized mass spectra were acquired with an interface voltage of 4.5 kV, a detector voltage of 1.0 kV, a heat block temperature of 500°C and a desolvation temperature of 160°C.
(Caco-2 cells form a polarised layer with tight junctions and transporters.)

Series [2] relates to Caco-2 cell monolayers. The series is described as above. The class given is in vitro ADME, human. Here is the method: as §1
Series [3] relates to P-gp. The conditions noted are these: 20 μM, 96 hours, Caco-2, western blot vs control. The procedure: Caco-2 cells were seeded in 6 well plates at 10,000 cells/cm^2 for 21 days. Drugs and drug combinations at 20 μM prepared in cell growth medium were added on to the mature cells and exposed for 96 hours. After drug exposure, cells were washed three times using PBS and cell lysate was prepared in lysis buffer. The protein content was quantified using the 96 well micro-Lowry protein assay and regulation of P-gp was determined using western blotting.
The membrane was blocked using 2% casein in TBS and washed with TBST. The primary antibody; Mdr (G-1) mouse monoclonal IgG2b 200 and mouse anti-β actin were used as the antibody for β-actin, the reference protein. The antibody; HRP linked goat anti mouse IgG was used as the secondary antibody. The washed membrane was incubated in a BioRad clarity chemiluminescent substrate and enhancer was read and semi quantified using the BIORAD Chemidoc MPT imager with Image LabTM software.
In general terms: Immunoblotting shows a protein as a band on a membrane.

Like-named read-outs stand apart in the source and are kept apart here. Marks after values point to notes of the source that are not given here.

Regarding `OC(c1cc(C(F)(F)F)nc2c(C(F)(F)F)cccc12)C1CCCCN1` (stereo not drawn) [MQ, mefloquine], the Papp at 120 min in series [1] (drug alone, read-out: Ap-Bas directional Papp, range over concentrations tested) was 60 to 100 nm/s; in series [1] (drug alone, read-out: Bas-Ap directional Papp, range over concentrations tested) it was 50 to 70 nm/s; in series [1] (read-out: permeability across the gastrointestinal epithelium (class)), 10 to 250 nm/s; in series [1] (summary in abstract, methylene blue depending on the direction of transport, read-out: permeability), around 100 nm/s. In addition, in series [1] (Caco-2, Conc (μM) + inhibitor (μM): 100, Bas-Ap divided by Ap-Bas), the efflux ratio at 120 min, 100 µM is 1.2. Besides, the efflux ratio at 120 min, 10 µM in series [1] (Caco-2, Conc (μM) + inhibitor (μM): 10, Bas-Ap divided by Ap-Bas) was 0.7. The Papp at 120 min, 10 µM in series [1] (Caco-2, Conc (μM) + inhibitor (μM): 10, first-named drug measured, read-out: Papp Ap-Bas) was determined as 99 ± 7 nm/s. In addition, the Papp B→A at 120 min, 10 µM in series [1] (Caco-2, Conc (μM) + inhibitor (μM): 10, first-named drug measured, read-out: Papp Bas-Ap) came to 66 ± 4 nm/s. The efflux ratio at 120 min, 20 µM in series [1] (Caco-2, Conc (μM) + inhibitor (μM): 20, Bas-Ap divided by Ap-Bas) came out at 0.9. Besides, in series [1] (Caco-2, Conc (μM) + inhibitor (μM): 20, first-named drug measured, read-out: Papp Ap-Bas), the Papp at 120 min, 20 µM is 58 ± 7 nm/s. In series [1] (Caco-2, Conc (μM) + inhibitor (μM): 20, first-named drug measured, read-out: Papp Bas-Ap), the Papp B→A at 120 min, 20 µM was 53 ± 9 nm/s. Besides, in series [1] (Caco-2, Conc (μM) + inhibitor (μM): 100, first-named drug measured, read-out: Papp Ap-Bas), the Papp at 120 min, 100 µM came out at 89 ± 7 nm/s. Besides, the Papp B→A at 120 min, 100 µM in series [1] (Caco-2, Conc (μM) + inhibitor (μM): 100, first-named drug measured, read-out: Papp Bas-Ap) turned out to be 114 ± 8 nm/s. The figures for the Net flow direction result in series [2] (Conc (μM) + inhibitor (μM): 10), in series [2] (Conc (μM) + inhibitor (μM): 20) and in series [2] (Conc (μM) + inhibitor (μM): 100) were “Diffusion (0.02) ^*”, “Diffusion (0.66)” and “Diffusion (0.08)”, respectively. For the same compound, in series [2] (based on FDA biopharmaceutical classification system), the “drug absorption predicted from Papp” value is given as 50–84%. Moreover, the “regulation of P-gp expression” value in series [3] is reported as “not observed”.
